Measurements from patent publication US12528816B2, “Substituted imidazo [1,2-b] pyridazines and [1, 2, 4] triazolo [ 4,3-b] pyridazines as camkii inhibitors” (Cardurion Pharmaceuticals, INC., priority 2020, dated 2026).

biological target: T1, human CaMKIIδ (Homo sapiens, UniProt Q13557); experiment: Evaluation of in vitro CaMKII inhibitory activity (binding assay, TR-FRET); conditions: human CaMKIIδ, TR-FRET binding assay; class symbols A/B/C; read-out: Act (CaMKII inhibitory activity, binding assay)
T1 construct: Full-length, glutathione-S-transferase(GST)-tagged, human CaMKIIδ was purchased from Carna Biosciences; purchased Carna Biosciences (CaMKIIδ); Wako Pure Chemical Industries (calmodulin) 02-111
Procedure, shortened: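 Inhibitors, in eight concentrations of 4-fold dilution, were incubated 1 h at room temperature with a protein–fluorescent probe premix preformed 30 min on ice, containing calmodulin and terbium anti-GST antibody. Displacement read by TR-FRET in duplicate; IC50 by logistic fitting.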

`CC(=O)N(C)CCOc1cccc(-c2cnc3ccc(-c4ccc(F)c(O[C@@H](C)Cn5cnnn5)c4)nn23)c1C#N` [compound 205] and `CC(=O)NCCCOc1cccc(-c2cnc3ccc(-c4ccc(F)c(O[C@@H](C)Cn5cnnn5)c4)nn23)c1C#N` [compound 204] cannot be ordered by IC50: less than 10 nM for the first, less than 10 nM for the second.

Compared with `C[C@@H](Cn1cnnn1)Oc1cccc(-c2ccn3ncc(-c4cccc(C(=O)NCc5ccccc5)c4)c3n2)c1` [compound 91], `C[C@@H](Cn1cnnn1)Oc1cccc(-c2ccn3ncc(-c4cccc(C(=O)Nc5ccccc5)c4)c3n2)c1` [compound 81] is higher in IC50: less than 10 nM for the first, 10 to 100 nM for the second.

First: C[C@@H](Cn1cnnn1)Oc1cc(-c2ccc3ncc(-c4cccnc4N)n3n2)ccc1F [compound 194]
Second: COc1cccc(-c2cnc3ccc(-c4ccc(F)c(O[C@@H](C)Cn5cnnn5)c4)nn23)c1C#N [compound 197]
The IC50 of the first is higher: 10 to 100 nM for the first, less than 10 nM for the second.

`C[C@@H](Cn1cnnn1)Oc1cccc(-c2ccn3ncc(-c4cccc(C(=O)N5CCC(C)(O)CC5)c4)c3n2)c1` [compound 99] and `COC1CCN(C(=O)c2cccc(-c3cnn4ccc(-c5cccc(O[C@@H](C)Cn6cnnn6)c5)nc34)c2)CC1` [compound 101] fall in the same range of IC50: 10 to 100 nM for the first, 10 to 100 nM for the second.

`C[C@@H](Cn1cnnn1)Oc1cccc(-c2ccn3ncc(-c4cccc(C(=O)NCc5ccccn5)c4)c3n2)c1` [compound 92] and `C[C@@H](Cn1cnnn1)Oc1cccc(-c2ccn3ncc(-c4cccc(C(=O)Nc5cccnc5)c4)c3n2)c1` [compound 84] cannot be ordered by IC50: less than 10 nM for the first, less than 10 nM for the second.

First: C[C@@H](Cn1cnnn1)Oc1cc(-c2ccc3ncn(-c4cccc5c4C(=O)N(C)C5=O)c3n2)ccc1F [compound 193]
Second: C[C@@H](Cn1cnnn1)Oc1cc(-c2ccn3ncc(-c4ccn(C)n4)c3n2)ccc1F [compound 25]
The IC50 of the first is higher: greater than 100 nM for the first, less than 10 nM for the second.

`COCCCn1ncc(-c2cnc3ccc(-c4ccc(F)c(O[C@@H](C)Cn5cnnn5)c4)nn23)c1C(=O)O` [compound 230] and `COCCCNC(=O)Cn1cc(-c2cnc3ccc(-c4ccc(F)c(O[C@@H](C)Cn5cnnn5)c4)nn23)c(C#N)n1` [compound 126] cannot be ordered by IC50: greater than 100 nM for the first, greater than 100 nM for the second.

Compared with `COCCOc1ccc(-c2cnn3ccc(-c4ccc(F)c(O[C@@H](C)Cn5cnnn5)c4)nc23)cc1` [compound 44], `C[C@@H](Cn1cnnn1)Oc1cc(-c2ccn3ncc(-c4ccsc4)c3n2)ccc1F` [compound 26] is lower in IC50: 10 to 100 nM for the first, less than 10 nM for the second. The second is the more potent here.

`C[C@@H](Cn1cnnn1)Oc1cc(-c2ccn3ncc(-c4ccsc4C#N)c3n2)ccc1F` [compound 162] and `C[C@@H](Cn1cnnn1)Oc1cc(-c2ccn3ncc(-c4ccccc4F)c3n2)ccc1F` [compound 52] cannot be ordered by IC50: less than 10 nM for the first, less than 10 nM for the second.

`CC(=O)NCCNC(=O)c1cccc(-c2cnn3ccc(-c4cccc(O[C@@H](C)Cn5cnnn5)c4)nc23)c1` [compound 90] and `C[C@@H](Cn1cnnn1)Oc1cccc(-c2ccn3ncc(-c4cccc(C(=O)NCCn5cncn5)c4)c3n2)c1` [compound 96] cannot be ordered by IC50: less than 10 nM for the first, less than 10 nM for the second.

First: C[C@@H](Cn1cnnn1)Oc1cccc(-c2ccn3ncc(-c4cccc(C(=O)NC5CCN(C)CC5)c4)c3n2)c1 [compound 98]
Second: C[C@@H](Cn1cnnn1)Oc1cc(-c2ccn3ncc(-c4cccc(OC(F)(F)F)c4)c3n2)ccc1F [compound 46]
The IC50 of the first is lower: less than 10 nM for the first, 10 to 100 nM for the second. The first is the more potent here.

First: COc1c(C(=O)NCCN2CCOCC2)cccc1-c1cnn2ccc(-c3ccc(F)c(O[C@@H](C)Cn4cnnn4)c3)nc12 [compound 152]
Second: C[C@@H](Cn1cnnn1)Oc1cc(-c2ccn3ncc(-c4ccccc4Cl)c3n2)ccc1F [compound 133]
The IC50 of the first is lower: less than 10 nM for the first, 10 to 100 nM for the second.

`C[C@@H](Cn1cnnn1)Oc1cc(-c2ccn3ncc(-c4cncc(C#N)c4)c3n2)ccc1F` [compound 156] and `C[C@@H](Cn1cnnn1)Oc1cc(-c2ccn3ncc(-c4ccco4)c3n2)ccc1F` [compound 18] cannot be ordered by IC50: less than 10 nM for the first, less than 10 nM for the second.

`C[C@@H](Cn1cnnn1)Oc1cc(-c2ccc3ncc(-c4cccc(OCC(N)=O)c4C#N)n3n2)ccc1F` [compound 202] showed an IC50 of less than 10 nM.

same assay, conditions: in vitro CaMKII inhibitory activity (binding assay), human CaMKIIδ; read-out: Act

`Cc1cc(-c2cnc3ccc(-c4cccc(O[C@@H](C)Cn5cnnn5)c4)nn23)c(C#N)cn1` [compound 333] and `COc1cc(-c2cnc3ccc(-c4cccc(O[C@@H](C)Cn5cnnn5)c4)nn23)c(C#N)cn1` [Example 289, 6-methoxy-4-[6-(3-{[(2S)-1-(1H-tetrazol-1-yl)propan-2-yl]oxy}phenyl)imidazo[1,2-b]pyridazin-3-yl]pyridine-3-carbonitrile] cannot be ordered by IC50: less than 10 nM for the first, less than 10 nM for the second.

Compared with `C[C@@H](Cn1cnnn1)Oc1cncc(-c2ccc3ncn(-c4cc(F)ccc4C#N)c3n2)c1` [compound 316], `C[C@@H](Cn1cnnn1)Oc1cccc(-c2ccc3ncn(-c4cccc(OC(F)F)c4C#N)c3n2)n1` [compound 398] is higher in IC50: less than 10 nM for the first, 10 to 100 nM for the second.

`C[C@@H](Cn1cnnn1)Oc1cc(-c2ccc3ncc(-c4cc(F)c[nH]c4=O)n3n2)ccc1F` [compound 314] and `C[C@@H](Cn1cnnn1)Oc1cccc(-c2ccc3ncc(-c4cc(F)c[nH]c4=O)n3n2)c1` [compound 324] cannot be ordered by IC50: less than 10 nM for the first, less than 10 nM for the second.

`C[C@@H](Cn1cnnn1)Oc1cccc(-c2ccc3ncc(-c4cc(F)cc(OC(F)F)c4C#N)n3n2)n1` [Example 409, 2-(difluoromethoxy)-4-fluoro-6-[6-(6-{[(2S)-1-(1H-tetrazol-1-yl)propan-2-yl]oxy}pyridin-2-yl)imidazo[1,2-b]pyridazin-3-yl]benzonitrile] and `COc1cc(OC)c(C#N)c(-c2cnc3ccc(-c4cccc(O[C@@H](C)Cn5cnnn5)n4)nn23)c1` [compound 456] cannot be ordered by IC50: less than 10 nM for the first, less than 10 nM for the second.

`C[C@@H](Cn1cnnn1)Oc1cccc(-c2ccc3ncc(-c4[nH]c(=O)ccc4C#N)n3n2)c1` [compound 364] and `C[C@@H](Cn1cnnn1)Oc1cccc(-c2ccc3ncc(-c4nc(Cl)ccc4C#N)n3n2)c1` [compound 386] cannot be ordered by IC50: less than 10 nM for the first, less than 10 nM for the second.

`C[C@@H](Cn1cnnn1)Oc1cccc(-c2ccc3ncc(-c4cccc(OC(F)F)c4C#N)n3n2)c1` [Example 412, 2-(difluoromethoxy)-6-[6-(3-{[(2S)-1-(1H-tetrazol-1-yl)propan-2-yl]oxy}phenyl)imidazo[1,2-b]pyridazin-3-yl]benzonitrile] and `C[C@@H](Cn1cnnn1)Oc1cccc(-c2ccc3ncc(-c4ccccc4C#N)n3n2)c1` [Example 239, 2-[6-(3-{[(2S)-1-(1H-tetrazol-1-yl)propan-2-yl]oxy}phenyl)imidazo[1,2-b]pyridazin-3-yl]benzonitrile] cannot be ordered by IC50: less than 10 nM for the first, less than 10 nM for the second.

`C[C@@H](Cn1cnnn1)Oc1cccc(-c2ccc3ncc(-c4nccc(C(F)F)c4C#N)n3n2)c1` [compound 401] and `CCc1ccnc(-c2cnc3ccc(-c4cccc(O[C@@H](C)Cn5cnnn5)c4)nn23)c1C#N` [compound 380] cannot be ordered by IC50: less than 10 nM for the first, less than 10 nM for the second.

`COCCn1cccc(-c2cnc3ccc(-c4cccc(O[C@@H](C)Cn5cnnn5)c4)nn23)c1=O` [compound 254] and `COc1ncc(F)cc1-c1cnc2ccc(-c3cccc(O[C@@H](C)Cn4cnnn4)c3)nn12` [compound 315] cannot be ordered by IC50: less than 10 nM for the first, less than 10 nM for the second.

`C[C@@H](Cn1cnnn1)Oc1cccc(-c2ccc3ncc(-c4cc(F)cnc4OCC(F)(F)F)n3n2)c1` [compound 338] and `CNc1ccnc(-c2cnc3ccc(-c4cccc(O[C@@H](C)Cn5cnnn5)c4)nn23)c1C#N` [Example 358, 4-(methylamino)-2-[6-(3-{[(2S)-1-(1H-tetrazol-1-yl)propan-2-yl]oxy}phenyl)imidazo[1,2-b]pyridazin-3-yl]pyridine-3-carbonitrile] cannot be ordered by IC50: less than 10 nM for the first, less than 10 nM for the second.

Going from `C[C@@H](Cn1cnnn1)Oc1cc(-c2ccc3ncc(-c4cc(N=S5(=O)CCCC5)ccc4C#N)n3n2)ccc1F` [compound 264] to `C[C@@H](Cn1cnnn1)Oc1cc(-c2ccc3ncc(-c4nccc(OCF)c4C#N)n3n2)ccc1F` [Example 435, 2-[6-(4-fluoro-3-{[(2S)-1-(1H-tetrazol-1-yl)propan-2-yl]oxy}phenyl)imidazo[1,2-b]pyridazin-3-yl]-4-(fluoromethoxy)pyridine-3-carbonitrile], the IC50 falls from greater than 100 nM to less than 10 nM. The second is the more potent here.

`Cc1c(-c2cnc3ccc(-c4ccc(F)c(O[C@@H](C)Cn5cnnn5)c4)nn23)c(C(F)(F)F)nn1C` [compound 266] and `COCCCn1ncc(-c2cnc3ccc(-c4ccc(F)c(O[C@@H](C)Cn5cnnn5)c4)nn23)c1C(=O)N(C)C` [compound 236] cannot be ordered by IC50: greater than 100 nM for the first, greater than 100 nM for the second.

Compared with `COc1ccnc(-c2cnc3ccc(-c4cccc(O[C@@H](C)Cn5cnnn5)n4)nn23)c1C#N` [compound 414], `C[C@@H](Cn1cnnn1)Oc1cccc(-c2ccc3ncc(-c4cccc(F)c4C#N)n3n2)n1` [compound 419] is lower in IC50: 10 to 100 nM for the first, less than 10 nM for the second. The second is the more potent here.

`C[C@@H](Cn1cnnn1)Oc1cncc(-c2ccc3ncc(-c4cc(Cl)ccc4C#N)n3n2)n1` [compound 441] and `C[C@@H](Cn1cnnn1)Oc1cccc(-c2ccc3ncc(-c4ncccc4C#N)n3n2)c1` [Example 271, 2-[6-(3-{[(2S)-1-(1H-tetrazol-1-yl)propan-2-yl]oxy}phenyl)imidazo[1,2-b]pyridazin-3-yl]pyridine-3-carbonitrile] cannot be ordered by IC50: less than 10 nM for the first, less than 10 nM for the second.

`C[C@@H](Cn1cnnn1)Oc1cccc(-c2ccn3ncc(-c4nccnc4C#N)c3n2)c1` [compound 302] and `COc1ccnc(-c2cnn3ccc(-c4ccc(F)c(O[C@@H](C)Cn5cnnn5)c4)nc23)c1C#N` [compound 437] cannot be ordered by IC50: less than 10 nM for the first, less than 10 nM for the second.

First: C[C@@H](Cn1cnnn1)Oc1cccc(-c2ccc3ncc(-c4nc(C(F)F)ccc4C#N)n3n2)c1 [compound 388]
Second: CC(=O)c1ccc(C#N)c(-c2cnc3ccc(-c4cccc(O[C@@H](C)Cn5cnnn5)c4)nn23)n1 [compound 389]
The IC50 of the first is lower: less than 10 nM for the first, 10 to 100 nM for the second.
